Laboratory results from patent US11905294B2, “Imidazo[1,5-a]pyrazine derivatives as PI3Kδ inhibitors” (BEIGENE, LTD., priority 2017, dated 2024).

Assays:
Format in all cases: biochemical
PI3K (p110γ) = PI3K (p110γ) (Homo sapiens, UniProt P48736); experiment: PI3Kγ assay (ADP-Glo Kinase Assay); conditions: recombinant enzyme; IC50 (nM) or max inhibition (%) at 0.5 μM
PI3K (p110α/p85α) = PI3K (p110α/p85α) (Homo sapiens, UniProt P42336); experiment: PI3Kα assay (ADP-Glo Kinase Assay); conditions: recombinant enzyme; IC50 (nM) or max inhibition (%) at 0.5 μM
PI3K (p110α/p85α), sequence (P42336 whole entry): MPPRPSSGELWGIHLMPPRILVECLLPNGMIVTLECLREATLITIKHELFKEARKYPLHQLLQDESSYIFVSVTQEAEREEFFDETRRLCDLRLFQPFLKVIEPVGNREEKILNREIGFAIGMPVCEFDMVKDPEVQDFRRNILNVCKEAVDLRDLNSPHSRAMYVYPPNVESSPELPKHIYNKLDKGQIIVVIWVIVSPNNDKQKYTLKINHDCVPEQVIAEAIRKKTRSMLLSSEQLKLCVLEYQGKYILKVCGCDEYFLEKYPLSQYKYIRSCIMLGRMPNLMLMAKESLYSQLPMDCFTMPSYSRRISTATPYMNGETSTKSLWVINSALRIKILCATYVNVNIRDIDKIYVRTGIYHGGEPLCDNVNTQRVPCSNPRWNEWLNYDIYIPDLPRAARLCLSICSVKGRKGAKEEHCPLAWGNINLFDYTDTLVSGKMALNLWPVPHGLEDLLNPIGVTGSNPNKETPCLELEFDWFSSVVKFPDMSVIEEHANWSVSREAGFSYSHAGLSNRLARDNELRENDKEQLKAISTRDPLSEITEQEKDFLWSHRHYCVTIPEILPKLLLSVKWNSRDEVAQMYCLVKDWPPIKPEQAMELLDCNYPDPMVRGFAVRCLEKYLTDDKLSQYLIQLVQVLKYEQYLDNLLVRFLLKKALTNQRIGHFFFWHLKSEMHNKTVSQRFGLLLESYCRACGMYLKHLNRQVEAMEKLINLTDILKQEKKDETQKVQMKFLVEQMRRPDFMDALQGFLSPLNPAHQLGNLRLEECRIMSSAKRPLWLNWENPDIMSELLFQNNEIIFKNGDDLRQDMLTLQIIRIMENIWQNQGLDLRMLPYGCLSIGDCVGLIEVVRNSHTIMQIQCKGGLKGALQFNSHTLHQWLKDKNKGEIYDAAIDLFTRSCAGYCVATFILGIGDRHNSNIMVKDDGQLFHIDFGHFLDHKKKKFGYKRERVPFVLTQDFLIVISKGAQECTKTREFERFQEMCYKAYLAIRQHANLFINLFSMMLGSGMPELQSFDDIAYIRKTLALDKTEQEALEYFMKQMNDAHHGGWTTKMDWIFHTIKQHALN
PI3K (p110α/p85α), sequence (P27986 whole entry partner): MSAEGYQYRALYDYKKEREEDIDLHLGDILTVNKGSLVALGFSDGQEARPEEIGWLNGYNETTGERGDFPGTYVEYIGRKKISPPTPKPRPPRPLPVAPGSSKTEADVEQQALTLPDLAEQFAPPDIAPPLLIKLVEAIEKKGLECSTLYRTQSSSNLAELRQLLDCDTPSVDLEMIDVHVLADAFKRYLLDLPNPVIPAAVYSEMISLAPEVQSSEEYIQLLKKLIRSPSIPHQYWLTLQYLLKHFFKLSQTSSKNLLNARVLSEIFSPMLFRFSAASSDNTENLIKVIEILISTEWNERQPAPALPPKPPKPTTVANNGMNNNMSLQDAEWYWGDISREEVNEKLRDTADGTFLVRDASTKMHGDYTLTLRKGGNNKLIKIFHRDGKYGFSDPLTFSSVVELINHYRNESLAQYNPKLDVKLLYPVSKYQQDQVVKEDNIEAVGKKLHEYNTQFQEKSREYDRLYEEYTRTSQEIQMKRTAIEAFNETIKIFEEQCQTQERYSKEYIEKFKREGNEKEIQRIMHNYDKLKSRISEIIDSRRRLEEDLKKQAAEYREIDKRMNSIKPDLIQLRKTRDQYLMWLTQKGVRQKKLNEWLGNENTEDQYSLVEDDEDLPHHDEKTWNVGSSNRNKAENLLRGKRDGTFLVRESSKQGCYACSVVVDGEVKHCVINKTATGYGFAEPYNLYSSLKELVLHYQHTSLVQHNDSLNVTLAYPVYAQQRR

PI3K (p110β/p85α) = PI3K (p110β/p85α) (Homo sapiens, UniProt P42338); experiment: PI3Kβ assay (ADP-Glo Kinase Assay); conditions: read-out: Enzyme activity IC50 PI3Kβ
PI3K (p110β/p85α), sequence (P42338 whole entry): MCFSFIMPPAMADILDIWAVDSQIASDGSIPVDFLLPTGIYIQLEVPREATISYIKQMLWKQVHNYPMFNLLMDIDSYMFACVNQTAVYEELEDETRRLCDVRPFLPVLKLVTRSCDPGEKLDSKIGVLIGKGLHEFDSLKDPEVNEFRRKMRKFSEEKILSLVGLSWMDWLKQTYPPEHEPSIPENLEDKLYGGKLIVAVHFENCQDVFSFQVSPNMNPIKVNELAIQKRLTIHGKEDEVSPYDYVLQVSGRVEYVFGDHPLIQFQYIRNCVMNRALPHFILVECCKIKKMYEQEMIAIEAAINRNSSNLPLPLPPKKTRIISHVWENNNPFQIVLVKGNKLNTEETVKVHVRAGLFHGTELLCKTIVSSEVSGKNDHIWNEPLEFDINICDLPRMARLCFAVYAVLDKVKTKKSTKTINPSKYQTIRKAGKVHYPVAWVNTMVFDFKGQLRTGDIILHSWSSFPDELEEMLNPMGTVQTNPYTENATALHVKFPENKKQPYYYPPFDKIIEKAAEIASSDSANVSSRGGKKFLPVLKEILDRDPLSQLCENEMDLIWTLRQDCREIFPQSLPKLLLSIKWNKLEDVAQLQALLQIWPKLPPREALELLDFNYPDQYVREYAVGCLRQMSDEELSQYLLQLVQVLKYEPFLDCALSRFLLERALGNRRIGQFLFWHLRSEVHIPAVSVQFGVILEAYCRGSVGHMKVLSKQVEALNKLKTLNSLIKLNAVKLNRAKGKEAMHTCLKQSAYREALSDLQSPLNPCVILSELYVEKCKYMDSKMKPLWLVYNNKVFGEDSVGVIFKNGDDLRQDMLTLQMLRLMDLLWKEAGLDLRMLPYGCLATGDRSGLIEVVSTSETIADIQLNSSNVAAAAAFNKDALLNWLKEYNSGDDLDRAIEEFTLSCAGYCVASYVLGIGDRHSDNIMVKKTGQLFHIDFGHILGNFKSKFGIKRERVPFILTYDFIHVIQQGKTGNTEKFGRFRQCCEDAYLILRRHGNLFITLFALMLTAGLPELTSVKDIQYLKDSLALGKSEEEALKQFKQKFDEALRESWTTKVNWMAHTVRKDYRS
PI3K (p110β/p85α), sequence (P27986 whole entry partner): as the sequence (P27986 whole entry partner) above

PI3K (p110δ/p85α) = PI3K (p110δ/p85α) (Homo sapiens, UniProt O00329); experiment: PI3Kδ assay (ADP-Glo Kinase Assay); conditions: recombinant enzyme; IC50 (nM) or max inhibition (%) at 0.5 μM
PI3K (p110δ/p85α), sequence (O00329 whole entry): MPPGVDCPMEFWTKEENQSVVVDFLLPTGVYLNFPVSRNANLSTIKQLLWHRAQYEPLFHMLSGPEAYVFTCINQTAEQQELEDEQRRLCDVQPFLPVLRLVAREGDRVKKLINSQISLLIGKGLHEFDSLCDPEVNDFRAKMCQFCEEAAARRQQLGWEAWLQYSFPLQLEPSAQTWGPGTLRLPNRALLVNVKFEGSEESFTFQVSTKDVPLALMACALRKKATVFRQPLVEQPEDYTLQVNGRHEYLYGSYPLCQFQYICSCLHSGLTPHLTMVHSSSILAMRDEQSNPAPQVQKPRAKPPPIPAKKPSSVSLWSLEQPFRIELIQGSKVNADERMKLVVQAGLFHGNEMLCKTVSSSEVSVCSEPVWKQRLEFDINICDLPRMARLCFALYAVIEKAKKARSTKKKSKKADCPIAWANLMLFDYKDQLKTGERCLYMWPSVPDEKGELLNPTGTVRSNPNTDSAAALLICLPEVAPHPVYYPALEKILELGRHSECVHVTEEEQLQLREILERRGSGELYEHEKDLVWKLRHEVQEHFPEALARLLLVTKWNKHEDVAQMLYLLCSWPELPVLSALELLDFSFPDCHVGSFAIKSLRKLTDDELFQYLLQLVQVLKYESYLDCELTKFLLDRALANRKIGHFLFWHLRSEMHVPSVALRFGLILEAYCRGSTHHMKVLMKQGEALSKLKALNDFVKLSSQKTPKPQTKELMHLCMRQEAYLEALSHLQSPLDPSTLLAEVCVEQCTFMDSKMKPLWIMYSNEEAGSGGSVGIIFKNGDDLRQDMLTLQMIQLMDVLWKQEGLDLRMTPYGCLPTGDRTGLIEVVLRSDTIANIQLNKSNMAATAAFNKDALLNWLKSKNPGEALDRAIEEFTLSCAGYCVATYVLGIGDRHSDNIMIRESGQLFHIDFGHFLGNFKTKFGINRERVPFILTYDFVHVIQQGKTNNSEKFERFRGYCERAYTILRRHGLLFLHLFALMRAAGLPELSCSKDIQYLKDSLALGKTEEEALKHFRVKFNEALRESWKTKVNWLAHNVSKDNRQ
PI3K (p110δ/p85α), sequence (P27986 whole entry partner): as the sequence (P27986 whole entry partner) above
Method: Compounds disclosed herein were tested for inhibition of PI3Kδ kinase activity using commercial ADP-Glo™ Kinase Assay (Promega Corporation) and following the manufacture's instruction. Briefly, recombinant PI3K (p110δ/p85α) enzyme, lipid kinase substrate and a serial dilution of compounds disclosed herein were incubated for 0.5 hr at room temperature. ATP was added to initiate the kinase reaction. After incubation for 1 hr at room temperature, ADP-Glo™ reagent was added to terminate the kinase reaction and deplete the remaining ATP. After incubation for 1 hr at room temperature, kinase detection reagent was added to simultaneously convert ADP to ATP and allow the newly synthesized ATP to be measured using a luciferase/luciferin reaction. After incubation for 0.5 hr at room temperature, the luminescence generated was measured on a PHERAstar FS plate reader (BMG LABTECH). The residual enzyme activity in presence of increasing concentrations of compounds was calculated based on the luminescence. The IC50 for each compound was derived from fitting the data to the four-parameter logistic equation by Graphpad Prism software.

PI3K (p110γ), sequence (P48736 whole entry): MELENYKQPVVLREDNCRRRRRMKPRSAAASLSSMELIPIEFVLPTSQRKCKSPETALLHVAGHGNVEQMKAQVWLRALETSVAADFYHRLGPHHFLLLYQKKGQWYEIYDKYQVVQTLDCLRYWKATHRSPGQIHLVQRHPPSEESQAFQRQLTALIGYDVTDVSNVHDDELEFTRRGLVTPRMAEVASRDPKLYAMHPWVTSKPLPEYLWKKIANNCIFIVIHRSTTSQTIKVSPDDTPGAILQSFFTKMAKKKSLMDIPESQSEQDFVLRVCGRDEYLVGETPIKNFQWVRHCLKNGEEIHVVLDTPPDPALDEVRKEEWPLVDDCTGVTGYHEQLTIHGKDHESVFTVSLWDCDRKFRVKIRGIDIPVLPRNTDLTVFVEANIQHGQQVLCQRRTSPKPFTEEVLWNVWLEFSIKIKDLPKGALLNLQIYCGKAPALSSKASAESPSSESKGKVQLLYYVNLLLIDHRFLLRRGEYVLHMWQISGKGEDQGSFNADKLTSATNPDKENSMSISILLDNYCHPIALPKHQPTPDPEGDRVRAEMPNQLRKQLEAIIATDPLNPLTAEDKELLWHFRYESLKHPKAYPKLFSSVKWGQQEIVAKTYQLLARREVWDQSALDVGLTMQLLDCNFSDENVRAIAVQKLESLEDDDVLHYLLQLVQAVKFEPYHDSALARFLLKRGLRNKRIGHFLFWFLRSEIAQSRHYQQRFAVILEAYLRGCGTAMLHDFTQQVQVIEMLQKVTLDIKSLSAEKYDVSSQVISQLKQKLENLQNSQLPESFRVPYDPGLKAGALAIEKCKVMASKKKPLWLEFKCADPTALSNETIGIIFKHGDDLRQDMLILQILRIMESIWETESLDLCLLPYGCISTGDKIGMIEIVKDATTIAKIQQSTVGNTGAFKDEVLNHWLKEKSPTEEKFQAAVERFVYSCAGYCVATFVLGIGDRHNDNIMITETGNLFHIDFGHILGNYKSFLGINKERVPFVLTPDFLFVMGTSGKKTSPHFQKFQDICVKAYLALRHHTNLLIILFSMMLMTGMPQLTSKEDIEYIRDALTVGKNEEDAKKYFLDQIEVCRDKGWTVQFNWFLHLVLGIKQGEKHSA

SMILES | IC50 (PI3K (p110γ)) | IC50 (PI3K (p110α/p85α)) | IC50 (PI3K (p110β/p85α)) | IC50 (PI3K (p110δ/p85α))
Cc1nc(C(C)c2cc(Cl)c(F)c(C(=O)N3CCOCC3)c2OC(C)C)n2ccnc(N)c12 (single isomer, unassigned) [Compound 4A] | 2000 nM | 13000 nM | 11 µM | 1 nM
Cc1nc(C(C)c2cc(Cl)c(F)c(C(=O)N3CCOCC3)c2OC(C)C)n2ccnc(N)c12 (single isomer, unassigned) [Compound 4B] | – | – | – | > 1000 nM
Cc1nc(C(C)c2cc(Cl)c(F)c(C(=O)N3CCC(F)(F)CC3)c2OC(C)C)n2ccnc(N)c12 (single isomer, unassigned) [Compound 13A] | 9300 nM | 20000 nM | > 50 µM | 3 nM
Cc1nc(C(C)c2cc(Cl)c(F)c(C(=O)N3CCC(F)(F)CC3)c2OC(C)C)n2ccnc(N)c12 (single isomer, unassigned) [Compound 13B] | – | – | – | > 1000 nM
Cc1nc(C(C)c2cc(Cl)c(F)c(C(=O)N[C@H]3CC[C@@H](O)C3)c2OC(C)C)n2ccnc(N)c12 (single isomer, unassigned) [Compound 14A] | 7900 nM | 18000 nM | 13 µM | 1.4 nM
Cc1nc(C(C)c2cc(Cl)c(F)c(C(=O)N[C@H]3CC[C@@H](O)C3)c2OC(C)C)n2ccnc(N)c12 (single isomer, unassigned) [Compound 14B] | – | – | – | 320 nM
Cc1nc(C(C)c2cc(Cl)c(F)c(C(=O)N3CC(C(=O)O)C3)c2OC(C)C)n2ccnc(N)c12 (stereo not drawn) [Compound 1, 1-(3-(1-(8-amino-1-methylimidazo[1,5-a]pyrazin-3-yl)ethyl)-5-chloro-6-fluoro-2-isopropoxybenzoyl)azetidine-3-carboxylic acid] | 9800 nM | > 50000 nM | > 50 µM | 9.7 nM
Cc1nc(C(C)c2cc(Cl)c(F)c(C(=O)NC3(C(=O)O)CC3)c2OC(C)C)n2ccnc(N)c12 (stereo not drawn) [Compound 2, 1-(3(1-(8-amino-1-methylimidazo[1,5-a]pyrazin-3-yl)ethyl)-5-chloro-6-fluoro-2-isopropoxybenzamido)cyclopropane-1-carboxylic acid] | 5500 nM | > 50000 nM | > 50 µM | 14 nM
Cc1nc(C(C)c2cc(Cl)c(F)c(C(=O)N3CC(O)C3)c2OC(C)C)n2ccnc(N)c12 (stereo not drawn) [Compound 3, (3-(1-(8-amino-1-methylimidazo[1,5-a]pyrazin-3-yl)ethyl)-5-chloro-6-fluoro-2-isopropoxyphenyl)(3-hydroxyazetidin-1-yl)methanone] | 19000 nM | 49000 nM | 34 µM | 6.3 nM
Cc1nc(C(C)c2cc(Cl)c(F)c(C(=O)N3CCOCC3)c2OC(C)C)n2ccnc(N)c12 (stereo not drawn) [Compound 4, (3-(1-(8-amino-1-methylimidazo[1,5-a]pyrazin-3-yl)ethyl)-5-chloro-6-fluoro-2-isopropoxyphenyl)(morpholino)methanone] | 3100 nM | 25000 nM | 24 µM | 1.9 nM
Cc1nc(C(C)c2cc(Cl)c(F)c(C(=O)NC3(CO)CC3)c2OC(C)C)n2ccnc(N)c12 (stereo not drawn) [Compound 5, 3-(1-(8-amino-1-methylimidazo[1,5-a]pyrazin-3-yl)ethyl)-5-chloro-6-fluoro-N-(1-(hydroxymethyl)cyclopropyl)-2-isopropoxybenzamide] | 10000 nM | 56000 nM | 16 µM | –
Cc1nc([C@@H](C)c2cc(Cl)c(F)c(C(=O)NC3(CO)CC3)c2OC(C)C)n2ccnc(N)c12 [Compound 5A] | 6300 nM | 21000 nM | 20 µM | –
Cc1nc(C(C)c2cc(Cl)c(F)c(C(=O)N3CC[C@H](O)C3)c2OC(C)C)n2ccnc(N)c12 (stereo partly drawn) [Compound 6, (3-(1-(8-amino-1-methylimidazo[1,5-a]pyrazin-3-yl)ethyl)-5-chloro-6-fluoro-2-isopropoxyphenyl)((S)-3-hydroxypyrrolidin-1-yl)methanone] | 17000 nM | > 50000 nM | > 50 µM | 2.9 nM
Cc1nc(C(C)c2cc(Cl)c(F)c(C(=O)N3CCC(O)CC3)c2OC(C)C)n2ccnc(N)c12 (stereo not drawn) [Compound 7, (3-(1-(8-amino-1-methylimidazo[1,5-a]pyrazin-3-yl)ethyl)-5-chloro-6-fluoro-2-isopropoxyphenyl)(4-hydroxypiperidin-1-yl)methanone] | 17000 nM | > 50000 nM | > 50 µM | 6 nM
COCCNC(=O)c1c(F)c(Cl)cc(C(C)c2nc(C)c3c(N)nccn23)c1OC(C)C (stereo not drawn) [Compound 8, 3-(1-(8-amino-1-methylimidazo[1,5-a]pyrazin-3-yl)ethyl)-5-chloro-6-fluoro-2-isopropoxy-N-(2-methoxyethyl)benzamide] | 6800 nM | 49000 nM | 16 µM | 2.3 nM
Cc1nc(C(C)c2cc(Cl)c(F)c(C(=O)NC[C@@H](C)O)c2OC(C)C)n2ccnc(N)c12 (stereo partly drawn) [Compound 9, 3-(1-(8-amino-1-methylimidazo[1,5-a]pyrazin-3-yl)ethyl)-5-chloro-6-fluoro-N-((R)-2-hydroxypropyl)-2-isopropoxybenzamide] | 9200 nM | 43000 nM | 18 µM | 2.9 nM
Cc1nc([C@@H](C)c2cc(Cl)c(F)c(C(=O)N3CCC[C@H](O)C3)c2OC(C)C)n2ccnc(N)c12 [Compound 20, (3-((S)-1-(8-amino-1-methylimidazo[1,5-a]pyrazin-3-yl)ethyl)-5-chloro-6-fluoro-2-isopropoxyphenyl)((S)-3-hydroxypiperidin-1-yl)methanone] | – | – | – | 2.1 nM
Cc1nc([C@@H](C)c2cc(Cl)c(F)c(C(=O)N[C@H](C)c3ccccc3)c2OC(C)C)n2ccnc(N)c12 [Compound 22, 3-((S)-1-(8-amino-1-methylimidazo[1,5-a]pyrazin-3-yl)ethyl)-5-chloro-6-fluoro-2-isopropoxy-N-((R)-1-phenylethyl)benzamide] | – | – | – | 3.7 nM
Cc1nc([C@@H](C)c2cc(Cl)c(F)c(C(=O)N[C@@H]3CCC[C@@H]3O)c2OC(C)C)n2ccnc(N)c12 [Compound 23, 3((S)-1-(8-amino-1-methylimidazo[1,5-a]pyrazin-3-yl)ethyl)-5-chloro-6-fluoro-N-((1R,2S)-2-hydroxycyclopentyl)-2-isopropoxybenzamide] | – | – | – | 9.9 nM
Cc1nc([C@@H](C)c2cc(Cl)c(F)c(C(=O)N(C)C)c2OC(C)C)n2ccnc(N)c12 [Compound 32, (S)-3-(1-(8-amino-1-methylimidazo[1,5-a]pyrazin-3-yl)ethyl)-5-chloro-6-fluoro-2-isopropoxy-N,N-dimethylbenzamide] | – | – | – | 3.2 nM
Cc1nc([C@@H](C)c2cc(Cl)c(F)c(C(=O)N[C@]3(C)CC[C@@H](O)CC3)c2OC(C)C)n2ccnc(N)c12 [Compound 40, 3-((S)-1-(8-amino-1-methylimidazo[1,5-a]pyrazin-3-yl)ethyl)-5-chloro-6-fluoro-N-((1R,4S)-4-hydroxy-1-methylcyclohexyl)-2-isopropoxybenzamide] | – | – | – | 6.5 nM
Cc1nc([C@@H](C)c2cc(Cl)c(F)c(C(=O)N[C@@H]3CCCC[C@@H]3O)c2OC(C)C)n2ccnc(N)c12 [Compound 48, 3-((S)-1-(8-amino-1-methylimidazo[1,5-a]pyrazin-3-yl)ethyl)-5-chloro-6-fluoro-N-((1R,2S)-2-hydroxycyclohexyl)-2-isopropoxybenzamide] | – | – | – | 9.1 nM
Cc1nc([C@@H](C)c2cc(Cl)c(F)c(C(=O)N[C@@H]3CCCC[C@H]3O)c2OC(C)C)n2ccnc(N)c12 [Compound 49, 3-((S)-1-(8-amino-1-methylimidazol[1,5-a]pyrazin-3-yl)ethyl)-5-chloro-6-fluoro-N-((1R,2R)-2-hydroxycyclohexyl)-2-isopropoxybenzamide] | – | – | – | 3.9 nM
Cc1nc([C@@H](C)c2cc(Cl)c(F)c(C(=O)NC3(CN(C)C)CC3)c2OC(C)C)n2ccnc(N)c12 [Compound 54, (S)-3-(1-(8-amino-1-methylimidazo[1,5-a]pyrazin-3-yl)ethyl)-5-chloro-N-(1-((dimethylamino)methyl)cyclopropyl)-6-fluoro-2-isopropoxybenzamide] | – | – | – | 11 nM
CO[C@H]1CCCN(C(=O)c2c(F)c(Cl)cc([C@H](C)c3nc(C)c4c(N)nccn34)c2OC(C)C)C1 [Compound 65, (3-((S)-1-(8-amino-1-methylimidazo[1,5-a]pyrazin-3-yl)ethyl)-5-chloro-6-fluoro-2-isopropoxyphenyl)((S)-3-methoxypiperidin-1-yl)methanone] | 6900 nM | – | > 50 µM | 2.9 nM
Cc1nc([C@@H](C)c2cc(Cl)c(F)c(C(=O)N3C[C@@H](C)O[C@@H](C)C3)c2OC(C)C)n2ccnc(N)c12 [Compound 67, (3-((S)-1-(8-amino-1-methylimidazo[1,5-a]pyrazin-3-yl)ethyl)-5-chloro-6-fluoro-2-isopropoxyphenyl)((2R,6S)-2,6-dimethylmorpholino)methanone] | – | – | – | 8 nM
Cc1nc([C@@H](C)c2cc(Cl)c(F)c(C(=O)N[C@H](C)[C@@H](C)O)c2OC(C)C)n2ccnc(N)c12 [Compound 72, 3-((S)-1-(8-amino-1-methylimidazo[1,5-a]pyrazin-3-yl)ethyl)-5-chloro-6-fluoro-N-((2R,3R)-3-hydroxybutan-2-yl)-2-isopropoxybenzamide] | – | – | – | 6.8 nM
